Laboratory results taken from ChEMBL document CHEMBL5608191, “Structure-based discovery of novel piperidine-biphenyl-DAPY derivatives as non-nucleoside reverse transcriptase inhibitors featuring improved potency, safety, and selectivity: From piperazine-biphenyl-DAPYs to piperidine-biphenyl-DAPYs” (Eur J Med Chem, 2024).
In brackets after ≈: the same amount, converted by molar mass.

Experiments:
[1] = system: Human immunodeficiency virus 1; test: Antiviral activity against wild-type HIV-1 IIIB infected in human MT4 cells assessed as protection against virus-induced cytopathic effect incubated for 5 days by MTT assay; assay type: functional, organism-based; conditions: Human immunodeficiency virus 1, IIIB, MT4, 120 h
[2] = system: Human immunodeficiency virus 1; test: Antiviral activity against HIV-1 harboring RT K103N mutant infected in human MT4 cells assessed as protection against virus-induced cytopathic effect incubated for 5 days by MTT assay; assay type: functional, organism-based; conditions: Human immunodeficiency virus 1, MT4, 120 h
[3] = Acute toxicity in mouse assessed as apparent pathological damage in heart treated for 14 days by H and E staining based analysis; assay type: tissue-based; conditions: in vivo, 336 h, time 14 day
[4] = system: Human immunodeficiency virus 1; test: Antiviral activity against HIV-1 harboring RT L100I mutant infected in human MT4 cells assessed as protection against virus-induced cytopathic effect incubated for 5 days by MTT assay; assay type: functional, organism-based; conditions: Human immunodeficiency virus 1, MT4, 120 h
[5] = Acute toxicity in mouse assessed as apparent pathological damage in kidney treated for 14 days by H and E staining based analysis; conditions: in vivo, 336 h, time 14 day
[6] = Acute toxicity in mouse assessed as apparent pathological damage in liver treated for 14 days by H and E staining based analysis; assay type: tissue-based; conditions: in vivo, 336 h, time 14 day
[7] = molecular target: Human immunodeficiency virus type 1 reverse transcriptase (Human immunodeficiency virus 1, UniProt Q72547); test: Inhibition of recombinant wild-type HIV-1 reverse transcriptase incubated for 40 mins by fluorescence based assay
[8] = Solubility of compound in phosphate buffer at pH 7.4 by HPLC analysis; assay type: physicochemical
[9] = Solubility of compound in phosphate buffer at pH 7 by HPLC analysis; assay type: physicochemical
[10] = Solubility of compound in phosphate buffer at pH 2 by HPLC analysis; assay type: physicochemical
[11] = Acute toxicity in mouse assessed as drug tolerance at 2 g/kg treated for 14 days; conditions: in vivo, 2000 mg/kg, 336 h, time 14 day
[12] = Acute toxicity in mouse assessed as apparent pathological damage in spleen treated for 14 days by H and E staining based analysis; assay type: tissue-based; conditions: in vivo, 336 h, time 14 day
[13] = molecular target: Voltage-gated inwardly rectifying potassium channel KCNH2 (Homo sapiens, UniProt Q12809); test: Inhibition of hERG expressed in CHO cells; assay type: toxicity, cell-based
Voltage-gated inwardly rectifying potassium channel KCNH2, sequence (Q12809 whole entry): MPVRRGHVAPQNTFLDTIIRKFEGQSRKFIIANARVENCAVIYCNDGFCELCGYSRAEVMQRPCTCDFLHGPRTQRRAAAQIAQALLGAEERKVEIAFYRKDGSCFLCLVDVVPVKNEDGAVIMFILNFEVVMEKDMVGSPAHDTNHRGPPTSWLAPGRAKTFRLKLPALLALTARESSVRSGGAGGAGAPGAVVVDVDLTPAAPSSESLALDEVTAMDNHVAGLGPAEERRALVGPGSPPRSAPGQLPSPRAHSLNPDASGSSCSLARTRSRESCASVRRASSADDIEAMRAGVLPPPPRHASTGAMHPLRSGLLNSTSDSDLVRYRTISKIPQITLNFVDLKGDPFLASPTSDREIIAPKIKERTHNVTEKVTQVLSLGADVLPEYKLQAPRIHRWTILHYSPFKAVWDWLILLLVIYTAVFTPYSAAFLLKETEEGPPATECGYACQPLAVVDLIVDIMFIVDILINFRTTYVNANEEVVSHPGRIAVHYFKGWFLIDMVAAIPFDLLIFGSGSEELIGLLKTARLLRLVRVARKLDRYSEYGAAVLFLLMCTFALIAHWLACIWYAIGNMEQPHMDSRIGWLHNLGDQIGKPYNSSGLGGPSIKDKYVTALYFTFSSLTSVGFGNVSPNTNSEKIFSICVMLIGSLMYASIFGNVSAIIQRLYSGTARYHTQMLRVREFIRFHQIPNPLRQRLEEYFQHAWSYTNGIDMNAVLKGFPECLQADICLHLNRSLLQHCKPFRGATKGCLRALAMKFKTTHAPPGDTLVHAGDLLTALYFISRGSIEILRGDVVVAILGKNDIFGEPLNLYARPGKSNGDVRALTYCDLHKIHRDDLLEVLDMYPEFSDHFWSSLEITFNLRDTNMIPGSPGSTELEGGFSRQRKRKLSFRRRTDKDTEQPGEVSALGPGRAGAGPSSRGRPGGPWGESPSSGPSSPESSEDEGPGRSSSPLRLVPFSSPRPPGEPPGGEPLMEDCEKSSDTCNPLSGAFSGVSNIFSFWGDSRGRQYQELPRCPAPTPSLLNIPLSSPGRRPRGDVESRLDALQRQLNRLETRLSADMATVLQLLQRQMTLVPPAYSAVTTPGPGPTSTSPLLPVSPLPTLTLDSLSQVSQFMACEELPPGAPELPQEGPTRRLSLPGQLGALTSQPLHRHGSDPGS

[14] = Acute toxicity in mouse assessed as animal death treated for 14 days; conditions: in vivo, 336 h, time 14 day
Cytochrome P450 3A4 [15] = molecular target: T1, Cytochrome P450 3A4 (Homo sapiens, UniProt P08684); test: Inhibition of CYP3A4 (unknown origin) using testosterone as substrate; assay type: ADME
T1 sequence (P08684 whole entry): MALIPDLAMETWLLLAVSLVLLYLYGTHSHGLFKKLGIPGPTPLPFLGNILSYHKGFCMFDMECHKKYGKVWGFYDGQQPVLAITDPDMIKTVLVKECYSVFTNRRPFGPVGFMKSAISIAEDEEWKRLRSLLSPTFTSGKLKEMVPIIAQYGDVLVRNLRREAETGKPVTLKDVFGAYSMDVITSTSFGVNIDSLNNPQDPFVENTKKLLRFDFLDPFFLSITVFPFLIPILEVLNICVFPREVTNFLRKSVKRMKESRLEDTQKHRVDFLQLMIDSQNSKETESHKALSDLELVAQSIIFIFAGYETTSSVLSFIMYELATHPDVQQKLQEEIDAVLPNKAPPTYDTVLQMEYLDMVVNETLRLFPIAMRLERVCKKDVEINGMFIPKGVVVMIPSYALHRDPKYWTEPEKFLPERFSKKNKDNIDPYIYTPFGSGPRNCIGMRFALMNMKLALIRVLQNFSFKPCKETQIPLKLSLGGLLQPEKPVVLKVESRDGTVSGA

[16] = Solubility of compound in water by HPLC analysis; assay type: physicochemical
[17] = Acute toxicity in mouse assessed as apparent pathological damage in brain treated for 14 days by H and E staining based analysis; assay type: tissue-based; conditions: in vivo, 336 h, time 14 day
[18] = Cytotoxicity against human MT4 cells assessed as reduction in cell viability incubated for 5 days by MTT assay; assay type: toxicity, cell-based; conditions: time 5 day
[19] = Acute toxicity in mouse assessed as apparent pathological damage in lung treated for 14 days by H and E staining based analysis; assay type: tissue-based; conditions: in vivo, 336 h, time 14 day
Cytochrome P450 2C19 = Cytochrome P450 2C19 (Homo sapiens, UniProt P33261); test: Inhibition of CYP2C19 (unknown origin); assay type: ADME
Cytochrome P450 2C19, sequence (P33261 whole entry): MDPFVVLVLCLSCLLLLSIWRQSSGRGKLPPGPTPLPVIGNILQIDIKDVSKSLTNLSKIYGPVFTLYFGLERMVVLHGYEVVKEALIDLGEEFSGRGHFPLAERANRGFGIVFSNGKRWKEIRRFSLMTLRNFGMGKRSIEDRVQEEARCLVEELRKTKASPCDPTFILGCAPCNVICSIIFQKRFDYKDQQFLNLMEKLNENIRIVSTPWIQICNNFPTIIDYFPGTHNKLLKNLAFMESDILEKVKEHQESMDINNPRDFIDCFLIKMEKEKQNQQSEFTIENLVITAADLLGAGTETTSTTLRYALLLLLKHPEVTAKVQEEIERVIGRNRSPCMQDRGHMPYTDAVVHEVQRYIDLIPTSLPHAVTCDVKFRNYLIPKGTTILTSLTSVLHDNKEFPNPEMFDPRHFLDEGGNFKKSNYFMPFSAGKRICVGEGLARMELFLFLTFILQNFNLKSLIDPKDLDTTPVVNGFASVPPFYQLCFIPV

Cytochrome P450 2C9 = Cytochrome P450 2C9 (Homo sapiens, UniProt P11712); test: Inhibition of CYP2C9 (unknown origin); assay type: ADME
Cytochrome P450 2C9, sequence (P11712 whole entry): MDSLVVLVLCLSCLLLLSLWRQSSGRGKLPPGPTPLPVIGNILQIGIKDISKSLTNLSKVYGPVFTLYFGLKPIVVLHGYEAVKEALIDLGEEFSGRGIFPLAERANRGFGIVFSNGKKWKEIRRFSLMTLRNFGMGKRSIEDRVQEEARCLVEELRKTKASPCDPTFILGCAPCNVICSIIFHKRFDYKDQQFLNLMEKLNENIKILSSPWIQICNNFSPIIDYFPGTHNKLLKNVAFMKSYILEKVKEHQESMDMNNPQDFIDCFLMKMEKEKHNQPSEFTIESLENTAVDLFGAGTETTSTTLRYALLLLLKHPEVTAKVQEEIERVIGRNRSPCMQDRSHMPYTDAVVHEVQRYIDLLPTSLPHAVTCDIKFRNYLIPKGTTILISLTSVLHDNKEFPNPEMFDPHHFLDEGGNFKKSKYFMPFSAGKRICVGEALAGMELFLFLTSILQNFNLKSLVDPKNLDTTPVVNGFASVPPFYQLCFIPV

[20] = system: Human immunodeficiency virus 1; test: Antiviral activity against HIV-1 harboring RT Y181C mutant infected in human MT4 cells assessed as protection against virus-induced cytopathic effect incubated for 5 days by MTT assay; assay type: functional, organism-based; conditions: Human immunodeficiency virus 1, MT4, 120 h
[21] = Selectivity index, ratio of CC50 for human MT4 cells to EC50 for wild-type HIV-1 IIIB infected in human MT4 cells; assay type: toxicity, cell-based; conditions: read-out: Ratio CC50/EC50
Cytochrome P450 2D6 = Cytochrome P450 2D6 (Homo sapiens, UniProt P10635); test: Inhibition of CYP2D6 (unknown origin); assay type: ADME
Cytochrome P450 2D6, sequence (P10635 whole entry): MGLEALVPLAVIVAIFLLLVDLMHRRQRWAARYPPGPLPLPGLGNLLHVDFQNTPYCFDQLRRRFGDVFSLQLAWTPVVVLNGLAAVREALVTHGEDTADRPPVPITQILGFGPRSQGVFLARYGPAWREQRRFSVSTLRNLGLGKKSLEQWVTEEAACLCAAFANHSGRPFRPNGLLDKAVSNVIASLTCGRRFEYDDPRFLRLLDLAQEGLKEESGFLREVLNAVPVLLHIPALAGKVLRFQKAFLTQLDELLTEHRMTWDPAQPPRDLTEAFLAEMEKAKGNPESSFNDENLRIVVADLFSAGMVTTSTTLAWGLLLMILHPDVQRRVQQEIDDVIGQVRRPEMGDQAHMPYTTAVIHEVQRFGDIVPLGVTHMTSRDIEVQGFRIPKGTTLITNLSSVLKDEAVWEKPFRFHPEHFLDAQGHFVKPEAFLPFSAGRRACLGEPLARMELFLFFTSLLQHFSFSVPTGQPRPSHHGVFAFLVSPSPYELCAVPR

[22] = system: Human immunodeficiency virus 1; test: Antiviral activity against HIV-1 harboring RT Y188L mutant infected in human MT4 cells assessed as protection against virus-induced cytopathic effect incubated for 5 days by MTT assay; assay type: functional, organism-based; conditions: Human immunodeficiency virus 1, MT4, 120 h
Cytochrome P450 3A4 [23] = molecular target: T1, Cytochrome P450 3A4; test: Inhibition of CYP3A4 (unknown origin) using midazolam as substrate; assay type: ADME
Cytochrome P450 1A2 = molecular target: T2, Cytochrome P450 1A2 (Homo sapiens, UniProt P05177); test: Inhibition of CYP1A2 (unknown origin); assay type: ADME
T2 sequence (P05177 whole entry): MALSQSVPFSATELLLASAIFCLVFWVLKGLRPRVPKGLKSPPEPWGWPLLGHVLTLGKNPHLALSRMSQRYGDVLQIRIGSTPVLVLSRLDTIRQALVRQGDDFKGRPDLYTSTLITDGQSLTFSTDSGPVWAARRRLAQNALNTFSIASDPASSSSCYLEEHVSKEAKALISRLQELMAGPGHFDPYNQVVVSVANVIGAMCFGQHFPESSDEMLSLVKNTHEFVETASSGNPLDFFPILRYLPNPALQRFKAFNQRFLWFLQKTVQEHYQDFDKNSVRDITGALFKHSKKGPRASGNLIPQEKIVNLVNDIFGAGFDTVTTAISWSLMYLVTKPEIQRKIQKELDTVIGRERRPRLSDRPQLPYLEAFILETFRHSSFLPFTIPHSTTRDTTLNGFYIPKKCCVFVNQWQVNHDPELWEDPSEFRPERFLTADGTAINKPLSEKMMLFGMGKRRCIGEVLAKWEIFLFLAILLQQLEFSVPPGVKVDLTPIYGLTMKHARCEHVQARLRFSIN

[24] = Acute toxicity in mouse assessed as change in body weight treated for 14 days; conditions: in vivo, 336 h, time 14 day
[25] = Acute toxicity in mouse assessed as toxic symptoms treated for 14 days; conditions: in vivo, 336 h, time 14 day
[26] = system: Human immunodeficiency virus 1; test: Antiviral activity against HIV-1 harboring RT E138K mutant infected in human MT4 cells assessed as protection against virus-induced cytopathic effect incubated for 5 days by MTT assay; assay type: functional, organism-based; conditions: Human immunodeficiency virus 1, MT4, 120 h
Cytochrome P450 3A4 [27] = molecular target: T1, Cytochrome P450 3A4; test: Inhibition of CYP3A4 (unknown origin); assay type: ADME

## CCOC(=O)c1cnc(NC2CCN(Cc3ccc(C(=O)NC)cc3)CC2)nc1Oc1c(C)cc(-c2ccc(C#N)cc2)cc1C
[1]
  EC50: 6 nM
[2]
  EC50: 7 nM
[3]
  Activity: Non-Toxic
[4]
  EC50: 29 nM
[5]
  Activity: Non-Toxic
[6]
  Activity: Non-Toxic
[7]
  IC50: 713 nM
[8]
  solubility: < 1 µg/mL
[9]
  solubility: < 1 µg/mL
[10]
  solubility: 109 µg/mL (≈ 177 µM)
[11]
  Activity: Non-Toxic
[12]
  Activity: Non-Toxic
[13]
  IC50: 25900 nM
[14]
  Activity: Non-Toxic
Cytochrome P450 3A4 [15]
  IC50: > 50000 nM
[16]
  solubility: < 1 µg/mL
[17]
  Activity: Non-Toxic
[18]
  CC50 at 120 h: > 202000 nM
[19]
  Activity: Non-Toxic
Cytochrome P450 2C19
  IC50: > 50000 nM
Cytochrome P450 2C9
  IC50: > 50000 nM
[20]
  EC50: 38 nM
[21]
  selectivity ratio: > 33100
Cytochrome P450 2D6
  IC50: > 50000 nM
[22]
  EC50: 63 nM
Cytochrome P450 3A4 [23]
  IC50: > 50000 nM
Cytochrome P450 1A2
  IC50: > 50000 nM
[24]
  Activity: Non-Toxic
[25]
  Activity: Non-Toxic
[26]
  EC50: 47 nM

## COc1ccc2c(c1)[C@]13CCCC[C@@H]1[C@H](C2)N(C)CC3 [DEXTROMETHORPHAN]
Cytochrome P450 2D6
  IC50: 242 nM

## C[C@]12CC[C@H]3[C@@H](CCC4=CC(=O)CC[C@@]43C)[C@@H]1CC[C@@H]2O [TESTOSTERONE]
Cytochrome P450 3A4 [27]
  IC50: 37 nM
